The record followed here is PubChem BioAssay AID504556 (Southern Research Specialized Biocontainment Screening …, 2011).

Active and inactive are the calls of the source. No rule for the calls is given here. Residues, ends and D or L forms follow the SMILES beside them. *: point of attachment. Cbz = O=C(OCc1ccccc1)* Bounds are passed on as bounds.

Assay [1] relates to Mycobacterium tuberculosis H37Rv growth in 7H9 medium. In words: M. tuberculosis H37Rv growth inhibitors – 7H9 medium, purified and synthesized compounds, set 2, dose response (AID 504556). The note with it: for IC90: measured here: M. tuberculosis growth IC90.
Assay in assay [2]: as above
As to conditions: Mycobacterium tuberculosis H37Rv growth in 7H9 medium; at 25 µM (top of the series).

As a reminder, the IC50 is the concentration at which inhibition is half-maximal. One may read the IC90 as the concentration at which the effect reaches the 90% level. With `S=c1nc[nH]c2nc[nH]c12`, in assay [1], the IC50 is 950 nM and the IC90 is 1570 nM.
Consider `O=C(CSc1nc2ccccc2c(=O)[nH]1)NCc1ccc(Cl)cc1`, for which, in assay [1], the IC50 was 160 nM and the IC90 worked out at 720 nM.
The like results for `O=C(NCC(c1cccs1)N1CCOCC1)c1cc([N+](=O)[O-])cc([N+](=O)[O-])c1` (stereo not given) were, in that order, 90 nM and 190 nM.
In the case of `Cc1ccc(C(=O)N/N=C(/CC(=O)c2cccs2)C(F)(F)F)cc1`, in assay [1], the half-maximal inhibitory concentration (IC50) was 540 nM and the IC90 is 1050 nM.
In the case of `Cc1nc(SCC(=O)NC2CCCCC2)[nH]c(=O)c1C`, in assay [1], the concentration for half-maximal inhibition (IC50) was 40 nM and the concentration for an effect of 90% (IC90) was 1030 nM.
In the case of `Oc1ccccc1/C=N/Nc1ccnc(SCc2ccccc2)n1`, the growth inhibition in assay [2] was 19.3% (inactive).
With `Cc1cccc(/C=C/C(=O)c2ccc([N+](=O)[O-])o2)c1`, in assay [1], the IC50 is below 10 nM and the IC90 is below 10 nM.
On to `O=C(/C=C/c1ccccc1)N1CCN(CCN2C(=O)c3cccc4cccc(c34)C2=O)CC1`, for which, in assay [1], the IC50 is 1290 nM and the IC90 is 3470 nM.
The like results for `CCOC1OC(=O)C(Cl)=C1Nc1ccccc1C` (stereo not given) were, in that order, 2020 nM and 9040 nM.
The like results for `CC[N+](C)(CC)CCCCOc1ccc2c(c1)C(=O)c1cc(OCCCC[N+](C)(CC)CC)ccc1-2` were, in that order, 770 nM and 1220 nM.
The corresponding values for `Cc1ccc2ccc3ccc(C)nc3c2n1` are 50 nM and 230 nM.
For `CCOC(=O)C(C)Sc1ncnc2c1nnn2-c1ccc(F)cc1` (stereo not given), in assay [1], the concentration for half-maximal inhibition (IC50) was 70 nM and the IC90 was 3420 nM.
The corresponding values for `COc1cc(NC(=O)C/C(C)=N/NC(=O)c2ccccn2)c(OC)cc1Cl` are 990 nM and 3040 nM.
For `COC(=O)CCc1nc2c(C#N)c(-c3ccc(Cl)cc3)ccn2n1`, in assay [1], the IC50 is 1110 nM and the 90% effect concentration (IC90) turned out to be 2460 nM.
For the compound `COC(=O)C(Nc1nc(SCC(=O)NC2CCCCC2)nc2ccccc12)c1ccccc1` (stereo not given), the growth inhibition in assay [2] is 2.12% (inactive).
On to `CCC(C)Nc1ccc(NC(C)CC)cc1` (stereo not given), for which, in assay [1], the 50% inhibitory concentration (IC50) is 320 nM and the IC90 was determined as 590 nM.
The like results for `O=C1C(Br)=Cc2cccc3cccc1c23` were, in that order, 20 nM and 1080 nM.
For `Cc1cccc(-c2oc3ccc(-c4ccc5c(c4)OCO5)cc3c2C#Cc2cncn2C)c1`, in assay [1], the IC50 is 2360 nM and the 90% effect concentration (IC90) amounted to 3220 nM.
The corresponding values for `CCOC(=O)CNC(=O)[C@H](Cc1ccccc1)NC(=O)OCc1ccccc1` (Cbz-Phe-Gly-OEt) are 610 nM and 1220 nM.
For the compound `Cc1ccc(NC(=O)C2C3/C=C\CCCCC32)cc1C` (stereo not given), in assay [1], the half-maximal inhibitory concentration (IC50) was 1490 nM and the 90% effect concentration (IC90) came to 4010 nM.
The corresponding values for `Nc1c(C(=O)NC2CCCCC2)nsc1C(=O)OCC(=O)NC1CCCCC1` are 380 nM and 2090 nM.
As for `CC(C)NC(=O)c1sc(=S)n2c1[nH]c(=O)c1ccc(C(=O)NCCc3ccc(Cl)cc3)cc12`, in assay [1], the IC50 is 80 nM and the 90% effect concentration (IC90) stood at 230 nM.
As to `c1ccc(/N=C2\N=C(Nc3ccccn3)c3ccccc32)nc1`, in assay [1], the IC50 was below 10 nM and the IC90 was below 10 nM.
Take `COC(=O)c1cc(=O)n(-c2ccc(F)cc2)c(=Nc2ccc(F)cc2)s1`: in assay [1], the IC50 was 150 nM and the 90% effect concentration (IC90) was determined as 1460 nM.
As for `CNc1nc(SCc2ccccc2Cl)nc2c1CCCC2`, in assay [1], the 50% inhibitory concentration (IC50) was 680 nM and the IC90 is 1910 nM.
The like results for `O=C(CSc1nc2ccccc2c(=O)[nH]1)NC1CCCCC1` were, in that order, below 10 nM and below 10 nM.
As to `CC(=NCc1ccc2c(c1)OCO2)C1=C(O)c2ccccc2C1=O`, in assay [1], the IC50 is 400 nM and the concentration for an effect of 90% (IC90) came out at 6040 nM.
The like results for `O=C(/C=C\c1cccs1)N1CCN(Cc2ccc3c(c2)OCO3)CC1` were, in that order, 330 nM and 1970 nM.
Consider `COC(=O)C1CC(=O)N(c2ccc(OCc3ccccc3Cl)cc2)C1` (stereo not given), for which, in assay [1], the concentration for half-maximal inhibition (IC50) is 220 nM and the concentration for an effect of 90% (IC90) turned out to be 3840 nM.
The corresponding values for `Cc1nn2c(NCc3ccccn3)cc(C(C)C)nc2c1-c1ccccc1` are 510 nM and 820 nM.
With `COC(=O)C(C)Oc1ccc(-c2nccc(-c3ccccn3)n2)cc1` (stereo not given), in assay [1], the IC50 is 1170 nM and the IC90 amounted to 2590 nM.
The like results for `Cc1ccc2c(c1)c(C1=c3ccccc3=NC1=O)c(O)n2C` were, in that order, 250 nM and 1720 nM.
For `CCOC(=O)COc1ccc(/C=C2\NC(=S)N(CC)C2=O)cc1`, in assay [1], the half-maximal inhibitory concentration (IC50) was 820 nM and the IC90 worked out at 6190 nM.
The like results for `Cc1cc(Br)ccc1NC(=O)c1cnc(N2CCN(c3ccccn3)CC2)c2ccccc12` were, in that order, 180 nM and 1470 nM.
Take `CCOC(=O)c1ccc(NC(=O)Cn2ncc(Cl)c(Cl)c2=O)cc1`: in assay [1], the IC50 was 70 nM and the IC90 came out at 480 nM.
The corresponding values for `CCc1ccc(/C=C2/C(=O)N(C)C(=S)N2CC(=O)OC)s1` are 190 nM and 3110 nM.
The corresponding values for `CCOC(=O)COn1c2c(c3c4no[n+]([O-])c4ccc31)CCCC2` are 1730 nM and 3680 nM.
For the compound `COC(=O)c1ccc(CNc2c(N3CCCC3)c(=O)c2=O)cc1`, in assay [2], the growth inhibition was 0.86% (inactive).
In the case of `CC1CCN(C(=O)C2CCN(c3nnc(-n4cccc4)s3)CC2)CC1`, in assay [1], the IC50 is 890 nM and the 90% effect concentration (IC90) worked out at 2230 nM.
